# Experimental data from patent publication US20260159604A1, “USES OF NON-SMALL CELL LUNG CANCER TARGET ARID1A AND INHIBITOR THEREOF IN PREPARATION OF DRUG FOR TREATING LUNG CANCER” (THE FIRST AFFILIATED HOSPITAL OF BENGBU MEDICAL COLLEGE, priority 2021, published 2026).
# Assays:
# [1] = test system: ARID1A-deficient lung cancers; assay: Intervention in glycolysis in AAV9-CMV-Cre induced KP and KPAfl/fl mouse lung cancer models; format: in vivo; settings: KPAfl/fl mice, AAV9-CMV-Cre induction
# Excerpt: In Example 4 of the present invention, the biological mechanism of ARID1A deletion promoting lung cancer progression by increasing glycolysis levels was described. In this example, one or more strategies were used to intervene in glycolysis levels, and whether the method(s) could inhibit the progression of ARID1A-deficient lung cancers was observed. In one embodiment, the present invention used a clinical drug 2-DG to inhibit glucose metabolism levels, including glycolysis levels of tumor cells. In another embodiment, the present invention used lentivirus-mediated CRISPR/Cas9 to interfere with the expression of Pgam1 gene (pSECC-sgPgaml group), wherein the nucleotide sequences of the sgRNA were as shown in SEQ ID NO: 4 and SEQ ID NO: 5. In another embodiment, the present invention used lentivirus-mediated CRISPR/Cas9 to interfere with the expression of Pkm gene (pSECC-sgPkm group), wherein the nucleotide sequences of the […] were as shown in SEQ ID NO: 6 and SEQ ID NO: 7.
# Firstly, 4-week-old KP and KPAfl/fl mouse systems were established. Secondly, AAV9-CMV-Cre virus induction was performed on mice. At the same time, lentivirus-mediated Cas9 and sgRNA were administered respectively to target a key gene Pgam1 or Pkm in glycolysis for intervention, with 2-DG drug treatment as another experimental group. […]
# [2] = test system: KP and KPAfl/fl tumor-derived organoids; assay: Drug sensitivity of BET inhibitors on tumor-derived organoids; format: cell-based, mouse; settings: for number of organoids with increasing drug concentration: different drug concentrations
# Protocol: Firstly, lung tumor cells of KP and KPAfl/fl mice were taken for in vitro organoid culture and expansion, and drug sensitivity experiments of five widely used BET inhibitors were conducted on tumor-derived organoids (as shown in FIG. 7 panel A).
# [3] = test system: ARID1A-mutant ovarian cancers; settings: reported studies; cited from earlier work
# [4] = test system: tumors with ARID1A knockout; assay: KP and KPAfl/fl tumor organoids xenotransplanted subcutaneously into C57 mice; format: in vivo, mouse; settings: subcutaneous organoid xenotransplant in C57 mice, volumes measured every 3 days
# Protocol: During the experiment, tumor volumes were measured every 3 days.
# [5] = test system: ARID1A-deficient lung cancer cells; assay: Sensitivity to BETi small molecules in transgenic model mice (KP and KPAfl/fl groups); format: in vivo, mouse
# Protocol: Finally, the sensitivity of BETi small molecules to ARID1A-deficient cells was tested on transgenic model mice (KP and KPAfl/fl groups) (FIG. 7 panel D).
compound,measurement,setting,value
"O=CC[C@@H](O)[C@H](O)[C@H](O)CO [2-DG, 2-deoxy-D-glucose]",inhibition of tumor progression caused by the ARID1A deletion,[1],could to some extent inhibit tumor progression
COc1cc2c(cc1-c1c(C)noc1C)ncc1[nH]c(=O)n([C@H](C)c3ccccn3)c12 [Bet151],number of organoids with increasing drug concentration,[2]; 7th day,the number of organoids decreased with the increase of drug concentration
CC(=O)N1c2ccc(-c3ccc(C(=O)O)cc3)cc2[C@H](Nc2ccc(Cl)cc2)C[C@@H]1C [Bet726],number of organoids with increasing drug concentration,[2]; 7th day,the number of organoids decreased with the increase of drug concentration
Cc1sc2c(c1C)C(c1ccc(Cl)cc1)=N[C@@H](CC(=O)OC(C)(C)C)c1nnc(C)n1-2 [JQ1],survival ability of ARID1A-deficient versus ARID1A wild-type tumor organoids,[2],greater damage to the survival ability of ARID1A-deficient tumor organoids than ARID1A wild-type organoids
same,number of organoids with increasing drug concentration,[2]; 7th day,the number of organoids decreased with the increase of drug concentration
same,"formation of tumor-derived organoids, KPAfl/fl versus KP","[2]; concentrations of 10 μm and 50 μm, 7th day",selectively impaired the formation of KPAfl/fl tumor-derived organoids
same,sensitivity of ARID1A-deficient lung adenocarcinoma cells to BETi compounds,"[2]; summary statement, compared with other BETi",more sensitive
same,inhibitory effects on ARID1A-mutant ovarian cancers,[3],inhibitory effects on ARID1A-mutant ovarian cancers
same,sensitivity by comparing tumor volumes and weights,[4],more sensitive
same,slowing of progression of ARID1A-deficient lung cancers (FIG. 7 legend),[5]; FIG. 7 summary,more prominent inhibitory effect
same,sensitivity by comparing the number and area of tumors,[5]; transgenic KP and KPAfl/fl mice,sensitive
"Cc1sc2c(c1C)C(c1ccc(Cl)cc1)=N[C@@H](CC(=O)Nc1ccc(O)cc1)c1nnc(C)n1-2 [OTX015, Birabresib]",number of organoids with increasing drug concentration,[2]; 7th day,the number of organoids decreased with the increase of drug concentration
